# From patent US11098010B2 (priority 2017, dated 2021)
# Where a name gives a salt, the structure may show the parent alone.
# System: HBV rcDNA in HepDE19 cells
# Test: HepDE19 assay with bDNA quantitation of HBV rcDNA
# Assay type: cell-based, hepatitis B virus (HBV)
# Details: HepDE19 cells, inhibition of rcDNA formation, 7 day incubation, top concentration 25 μM; read-out: DE-19 bDNA EC50
row,SMILES,EC50 [µM]
1,"O=C(NC1CCc2c(C(=O)Nc3ccc(F)c(Cl)c3)cncc21)OCc1ccccn1 (centres unmarked) [Compound 269, O-pyridin-2-ylmethyl, N-(4-((3-chloro-4-fluorophenyl)carbamoyl)-6,7-dihydro-5H-cyclopenta[c]pyridin-7-yl) carbamate]",2.3
2,"O=C(NC1CSc2c(C(=O)Nc3ccc(F)c(F)c3)ccc(F)c21)OCc1ccccn1 (centres unmarked) [Compound 64, O-Pyridin-2-ylmethyl, N-(7-((3,4-difluorophenyl)carbamoyl)-4-fluoro-2,3-dihydrobenzo[b]thiophen-3-yl) carbamate]",0.84

# Same assay, conditions: Hepatitis B virus, HepDE19, 168 h, HepDE19 cells, inhibition of rcDNA formation, 7 day incubation, top concentration 25 μM; read-out: DE-19 bDNA EC50
row,SMILES,EC50 [µM]
1,"Cn1ccc(C(=O)N[C@H]2CCc3c(C(=O)Nc4ccc(F)c(Cl)c4)ccc(F)c32)n1 [Compound 98, (S)—N-(4-((3-Chloro-4-fluorophenyl)carbamoyl)-7-fluoro-2,3-dihydro-1H-inden-1-yl)-1-methyl-1H-pyrazole-3-carboxamide]",0.82
2,"O=C(Nc1ccc(F)c(Cl)c1)c1cccc2c1CC[C@@H]2NS(=O)(=O)NC1CC1 [Compound 242, (S)-N-(3-chloro-4-fluorophenyl)-1-((N-cyclopropylsulfamoyl)amino)-2,3-dihydro-1H-indene-4-carboxamide]",0.57
3,"CNC(=O)NC1c2cccc(C(=O)Nc3ccc(F)c(F)c3)c2CC1O (centres unmarked) [Compound 53, N-(3,4-difluorophenyl)-2-hydroxy-1-(3-methylureido)-2,3-dihydro-1H-indene-4-carboxamide]",> 25
4,"Cn1nccc1COC(=O)N[C@H]1CCc2c(C(=O)Nc3ccc(F)c(Cl)c3)ccc(F)c21 [Compound 103, O-(1-Methyl-1H-pyrazol-5-yl)methyl, N—(S)-(4-((3-chloro-4-fluorophenyl)carbamoyl)-7-fluoro-2,3-dihydro-1H-inden-1-yl) carbamate]",0.1
5,"O=C(N[C@H]1CCc2c(C(=O)Nc3ccc(F)c(Cl)c3)ccc(F)c21)OCc1cncs1 [Compound 91, O-Thiazol-5-ylmethyl, N—(S)-(4-((3-chloro-4-fluorophenyl)carbamoyl)-7-fluoro-2,3-dihydro-1H-inden-1-yl) carbamate]",0.07
6,"CNS(=O)(=O)N[C@H]1CCc2c(C(=O)Nc3ccc(F)c(Cl)c3)ccc(F)c21 [Compound 227, (S)—N-(3-Chloro-4-fluorophenyl)-7-fluoro-1-((N-methylsulfamoyl)amino)-2,3-dihydro-1H-indene-4-carboxamide]",0.43
7,"Cc1cccc(COC(=O)N[C@H]2CCc3c(C(=O)Nc4ccc(F)c(Cl)c4)ccc(F)c32)n1 [Compound 73, O-(6-Methylpyridin-2-yl)methyl, N—(S)-(4-((3-chloro-4-fluorophenyl)carbamoyl)-7-fluoro-2,3-dihydro-1H-inden-1-yl) carbamate]",0.25
8,"COC1Cc2c(C(=O)Nc3ccc(F)c(F)c3)ccc(F)c2C1NC(=O)OCc1ccccn1 (centres unmarked) [Compound 246, O-pyridin-2-ylmethyl, N-(4-((3,4-difluorophenyl)carbamoyl)-7-fluoro-2-methoxy-2,3-dihydro-1H-inden-1-yl)carbamate]",2.7
9,"O=C(CO)N[C@H]1CCc2c(C(=O)Nc3ccc(F)c(Cl)c3)ccc(F)c21 [Compound 143, (S)—N-(3-Chloro-4-fluorophenyl)-7-fluoro-1-(2-hydroxyacetamido)-2,3-dihydro-1H-indene-4-carboxamide]",1.5
10,"O=C(Nc1ccc(F)c(Cl)c1)c1ccc(F)c2c1CC[C@@H]2NS(=O)(=O)C1CC1 [Compound 128, (S)—N-(3-Chloro-4-fluorophenyl)-1-(cyclopropanesulfonamido)-7-fluoro-2,3-dihydro-1H-indene-4-carboxamide]",0.04
11,"O=C(NC1CCc2c(C(=O)Nc3ccc(F)c(Cl)c3)cncc21)OCc1ccccn1 (single isomer, unassigned) [Compound 271, O-Pyridin-2-ylmethyl, N-(4-((3-chloro-4-fluorophenyl)carbamoyl)-6,7-dihydro-5H-cyclopenta[c]pyridin-7-yl)carbamate]",5.7
12,"O=C(N[C@H]1CCc2c(C(=O)Nc3ccc(F)c(Cl)c3)ccc(F)c21)OC1CCC(O)CC1 (stereo partly drawn) [Compound 154, O-cis-4-Hydroxycyclohexyl, N—((S)-4-((3-chloro-4-fluorophenyl)carbamoyl)-7-fluoro-2,3-dihydro-1H-inden-1-yl) carbamate]",0.35
13,"COC(=O)N[C@H]1CCc2c(C(=O)Nc3ccc(F)c(F)c3)cccc21 [Compound 1, O-methyl, N—(S)-(4-((3,4-difluorophenyl)carbamoyl)-2,3-dihydro-1H-inden-1-yl) carbamate]",0.64

# Same assay, conditions: Hepatitis B virus, HepDE19, 168 h, read-out: DE-19 bDNA EC50 (μM), HepDE19 cells, inhibition of rcDNA formation, 7 day incubation, top concentration 25 μM
row,SMILES,EC50 [µM]
1,"O=C(Nc1ccc(F)c(Cl)c1)c1ccc(F)c2c1CC[C@@H]2Nc1ncccn1 [Compound 45, (S)—N-(3-chloro-4-fluorophenyl)-7-fluoro-1-(pyrimidin-2-ylamino)-2,3-dihydro-1H-indene-4-carboxamide]",0.25
2,"COc1cc(N[C@H]2CCc3c(C(=O)Nc4ccc(F)c(Cl)c4)ccc(F)c32)ncn1 [Compound 163, (S)—N-(3-Chloro-4-fluorophenyl)-7-fluoro-1-((6-methoxypyrimidin-4-yl)amino)-2,3-dihydro-1H-indene-4-carboxamide]",0.07
3,"O=C(N[C@H]1CCc2c(C(=O)Nc3ccc(F)c(Cl)c3)ccc(F)c21)OCCc1ccccn1 [Compound 83, O-2-(Pyridin-2-yl)ethyl, N—(S)-(4-((3-chloro-4-fluorophenyl)carbamoyl)-7-fluoro-2,3-dihydro-1H-inden-1-yl) carbamate Hydrochloride]",0.18
4,"CC(=O)N1CC(F)(F)CC1COC(=O)N[C@H]1CCc2c(C(=O)Nc3ccc(F)c(Cl)c3)ccc(F)c21 (stereo partly drawn) [Compound 61, O-(1-Acetyl-4,4-difluoropyrrolidin-2-yl)methyl, N—((S)-4-((3-chloro-4-fluorophenyl)carbamoyl)-7-fluoro-2,3-dihydro-1H-inden-1-yl) carbamate]",0.4
5,"O=C(Nc1ccc(F)c(Cl)c1)c1ccc(F)c2c1CC[C@@H]2Nc1ccccn1 [Compound 97, (S)—N-(3-Chloro-4-fluorophenyl)-7-fluoro-1-(pyridin-2-ylamino)-2,3-dihydro-1H-indene-4-carboxamide Hydrochloride]",0.22
6,"O=C(N[C@H]1CCc2c(C(=O)Nc3ccc(F)c(Cl)c3)ccc(F)c21)OCc1cccc(N2CCOCC2)n1 [Compound 42, O-(6-Morpholinopyridin-2-yl)methyl, N—(S)-(4-((3-chloro-4-fluorophenyl)carbamoyl)-7-fluoro-2,3-dihydro-1H-inden-1-yl) carbamate]",0.27
7,"O=C(N[C@H]1CCc2c(C(=O)Nc3ccc(F)c(Cl)c3)ccc(F)c21)OCc1cc(Cl)ccn1 [Compound 80, O-(4-Chloropyridin-2-yl)methyl, N—(S)-(4-((3-chloro-4-fluorophenyl)carbamoyl)-7-fluoro-2,3-dihydro-1H-inden-1-yl) carbamate Hydrochloride]",0.33
8,"O=C(N[C@H]1CCc2c(C(=O)Nc3ccc(F)c(Cl)c3)ccc(F)c21)OCC1CCN(C(=O)CO)CC1 [Compound 175, O-(1-(2-Hydroxyacetyl)piperidin-4-yl)methyl, N—(S)-(4-((3-chloro-4-fluorophenyl)carbamoyl)-7-fluoro-2,3-dihydro-1H-inden-1-yl) carbamate]",0.96
9,"O=C(N[C@H]1CCc2c(C(=O)Nc3ccc(F)c(Cl)c3)ccc(F)c21)OCC1CNC(=O)O1 (stereo partly drawn) [Compound 132, O-(2-Oxooxazolidin-5-yl)methyl, N—((S)-4-((3-chloro-4-fluorophenyl)carbamoyl)-7-fluoro-2,3-dihydro-1H-inden-1-yl) carbamate]",0.22
10,"COc1nccc(N[C@H]2CCc3c(C(=O)Nc4ccc(F)c(Cl)c4)ccc(F)c32)n1 [Compound 161, (S)—N-(3-Chloro-4-fluorophenyl)-7-fluoro-1-((2-methoxypyrimidin-4-yl)amino)-2,3-dihydro-1H-indene-4-carboxamide]",0.27
11,"O=C1CC[C@@H](COC(=O)N[C@H]2CCc3c(C(=O)Nc4ccc(F)c(Cl)c4)cccc32)N1 [Compound 22, O—((S)-5-Oxopyrrolidin-2-yl)methyl, N—((S)-4-((3-chloro-4-fluorophenyl)carbamoyl)-2,3-dihydro-1H-inden-1-yl) carbamate]",0.44
12,"COc1ccnc(COC(=O)N[C@H]2CCc3c(C(=O)Nc4ccc(F)c(Cl)c4)ccc(F)c32)c1 [Compound 140, O-(4-Methoxypyridin-2-yl)methyl, N—(S)-(4-((3-chloro-4-fluorophenyl)carbamoyl)-7-fluoro-2,3-dihydro-1H-inden-1-yl) carbamate]",0.22
13,CN1C(=O)CC[C@@H]1COC(=O)N[C@H]1CCc2c(C(=O)Nc3ccc(F)c(Cl)c3)ccc(F)c21 [Compound 43],0.54
14,"Cc1cc(NC(=O)c2cccc3c2CC[C@@H]3NC(=O)OC[C@@H]2CCC(=O)N2)ccc1F [Compound 25, O—((S)-5-Oxopyrrolidin-2-yl)methyl, N—((S)-4-((4-fluoro-3-methylphenyl)carbamoyl)-2,3-dihydro-1H-inden-1-yl) carbamate]",1.1
15,"O=C(Nc1ccc(F)c(Cl)c1)c1ccc(F)c2c1CC[C@@H]2Nc1ccncn1 [Compound 196, (S)—N-(3-Chloro-4-fluorophenyl)-7-fluoro-1-(pyrimidin-4-ylamino)-2,3-dihydro-1H-indene-4-carboxamide]",0.63

# Same assay, conditions: read-out: DE-19 bDNA EC50; HepDE19 cells, inhibition of rcDNA formation, 7 day incubation, top concentration 25 μM
row,SMILES,EC50 [µM]
1,"O=C(NC1COc2c(C(=O)Nc3ccc(F)c(Cl)c3)ccc(F)c21)OCc1ccccn1 (single isomer, unassigned) [Compound 191, O-Pyridin-2-ylmethyl, N-(7-((3-chloro-4-fluorophenyl)carbamoyl)-4-fluoro-2,3-dihydrobenzofuran-3-yl)carbamate]",18
2,"CC1(C)Cc2c(C(=O)Nc3ccc(F)c(Cl)c3)ccc(F)c2C1NC(=O)OCc1ccccn1 (centres unmarked) [Compound 135, O-Pyridin-2-ylmethyl, N-(4-((3-chloro-4-fluorophenyl)carbamoyl)-7-fluoro-2,2-dimethyl-2,3-dihydro-1H-inden-1-yl) carbamate]",8.4
